Assay results: patent US4057684A, “Alkyl amino-glucopyranoside derivative and process for producing the same” (priority 1975, dated 1977)
Where “and” joins values, the source holds several entries; their conditions need not be identical. Identical values can stand only once. Entries after “also recorded” stand apart in the source; their conditions may differ. Like-named read-outs stand apart in the source and are kept apart here.

How the values were obtained:
[1] = cited from earlier work; for bone marrow toxicity: in vivo
[2] = peripheral white blood cell counts (bone marrow toxicity) and survival in normal male ICR mice; assay type: in vivo, mouse (ICR)
Experimental: Such peripheral white blood cell counts were performed as follows: Normal male ICR mice were used in groups of tens and the test compounds for treatment were made into their respective solutions. 2MCαG and 6MCαG were dissolved in physiological saline solutions, while CCNU and GCNU were suspended in 0.5% CMC aqueous solution and 50% PEG aqueous solution, respectively. A single administration at volume of 1 ml per 100 g body weight of animal (0.1 ml/10 g) was given intraperitoneally, and the peripheral white blood cell counts were performed 3, 8 and 15 days after administration of the test compounds.

[3] = cited from earlier work
[4] = system: solid as well as ascites tumor systems; test: antitumor activity in the tumor systems (overall); assay type: in vivo, mouse; conditions: mouse, in vivo
Source text: (§1) Results of pharmacological studies for amino-glucopyranoside [I] according to the invention are described below. The test compounds which were used included methyl N-carbamyl-N'-(2-chloroethyl)-N'-nitroso-2-amino-2-deoxy-α-D-glucopyranoside and methyl N-carbamyl-N'-(2-chloroethyl)-N'-nitroso-6-amino-6-deoxy-α-D-glucopyranoside (hereinafter abbreviated to 2MCαG and 6MCαG, respectively). The control compounds which were employed were 1-(2-chloroethyl)-3-cyclohexyl-1-nitrosoourea (hereinafter abbreviated to CCNU), which had been widely applied as a control compound in such a pharmacological test of the streptozotocin derivatives, and GCNU referred to previously. The tumor systems which were used were leukemia L-1210, Nakahara-Fukuoka sarcoma, adenocarcinoma-755, ascites sarcoma 180 and Ehrlich ascites carcinoma (hereinafter abbreviated to L-1210, NFS, Ca-755, S-180A and EAC, respectively), and the antitumor activities were determined by a procedure of the National Cancer Center, Tokyo (A. Hoshi et al.: Farumashia 9, 464(1973)). The test animals which were used were ICR and BDF1 mice.

[5] = acute toxicity (LD50) in mice; assay type: in vivo, mouse (ICR); conditions: mouse, in vivo, ICR mice
[6] = system: adenocarcinoma-755 (Ca-755); test: antitumor effect against adenocarcinoma-755 (Ca-755) implanted in mice; assay type: in vivo, mouse (BDF1)
Source text: as §1
(§2) ^a Treatment was initiated 24 hr after implantation of tumor (day 1):
(§3) D1~5 = qd, day 1~5; D1 = day 1 only.
(§4) ^b T/C is expressed as the tumor weight ratio in solid tumors or tota
(§5) packed cell volume ratio in ascites tumors of treated/control.

[7] = blood sugar level / diabetogenic activity; assay type: in vivo, rat (male Wister)
leukemia L-1210 = test: increase in life span and survival of leukemia L-1210 implanted mice; assay type: in vivo, mouse (BDF1)
Source text: as §1, §2, §3
^d % increase in life span (mean survival time) over controls.
^e 60 days survivors/total in treated group.

[8] = system: Nakahara-Fukuoka sarcoma (NFS); test: antitumor effect against Nakahara-Fukuoka sarcoma (NFS) implanted in mice; assay type: in vivo, mouse (ICR)
Source text: as §1, §2, §3, §4, §5

[9] = system: Ehrlich ascites carcinoma (EAC); test: antitumor effect against Ehrlich ascites carcinoma (EAC) implanted in mice; assay type: in vivo, mouse (ICR)
Source text: as §1, §2, §3, §4, §5

bacteria = test: antibacterial activity, broth dilution method
[10] = system: ascites sarcoma 180 (S-180A); test: antitumor effect against ascites sarcoma 180 (S-180A) implanted in mice; assay type: in vivo, mouse (ICR)
Source text: as §1, §2, §3, §4, §5

[11] = cited from earlier work; remark: listed apart in the source
tumor = conditions: in vivo; cited from earlier work
[12] = 3.2 mg/kg/day ip D1~5, BDF1 mice
[13] = 6.3 mg/kg/day ip D1~5, BDF1 mice
[14] = 15.0 mg/kg/day ip D1~5, BDF1 mice
[15] = 3.2 mg/kg/day ip D1~5, listed as 2MCaαG
[16] = 3.2 mg/kg/day ip D1~5, ICR mice
[17] = 6.3 mg/kg/day ip D1~5, ICR mice
[18] = 12.5 mg/kg/day ip D1~5, ICR mice
[19] = 15.0 mg/kg/day ip D1~5, ICR mice
[20] = 20.0 mg/kg/day ip D1~5, ICR mice
[21] = 3.2 mg/kg/day ip, 5 successive days

## CC(=O)OC[C@H]1OC(OC(C)=O)[C@H](NC(=O)N(CCCl)N=O)[C@@H](OC(C)=O)[C@@H]1OC(C)=O (stereo partly shown) [GCNU, 3-(tetraacetylglucopyranos-2-yl)-1-(2-chloroethyl)-1-nitrosourea, reference compound]
[1]
  bone marrow toxicity: reduced bone marrow toxicity
[1]; single ip, 15 mg/kg
  leukopenia: without causing leukopenia
[2]; 10 mg/kg ip single
  Death rate (death/used): 0/10
[2]; 10 mg/kg ip single, day 3
  Average count of WBC: 83.1±4.5 x 10^2 WBC/mm^3
[2]; 10 mg/kg ip single, day 8
  Average count of WBC: 140.3±15.7 x 10^2 WBC/mm^3
[2]; 10 mg/kg ip single, day 15
  Average count of WBC: 116.0±10.0 x 10^2 WBC/mm^3
[2]; 20 mg/kg ip single
  Death rate (death/used): 6/10
[2]; 20 mg/kg ip single, day 3
  Average count of WBC: 60.4±3.6 x 10^2 WBC/mm^3
[2]; 20 mg/kg ip single, day 8
  Average count of WBC: 131.4±17.4 x 10^2 WBC/mm^3
[2]; 20 mg/kg ip single, day 15
  Average count of WBC: 106.0±9.0 x 10^2 WBC/mm^3
[2]; 40 mg/kg ip single
  Death rate (death/used): 10/10
[2]; 40 mg/kg ip single, day 3
  Average count of WBC: 33.2±3.3 x 10^2 WBC/mm^3
[2]; 60 mg/kg ip single
  Death rate (death/used): 10/10
[2]; 60 mg/kg ip single, day 3
  Average count of WBC: 26.5±3.5 x 10^2 WBC/mm^3
[3]; test animals
  diabetogenic activity: nondiabetogenic activity

## CO[C@H]1O[C@H](CO)[C@@H](O)[C@H](O)[C@H]1NC(=O)N(CCCl)N=O [Example 2MCαG, methyl N-carbamyl-N'-(2-chloroethyl)-N'-nitroso-2-amino-2-deoxy-α-D-glucopyranoside]
[4]
  antitumor activity: activity against solid as well as ascites tumor systems
[5]; 5 doses, qd
  LD50: 16 mg/kg
[5]; single dose
  LD50: 48 mg/kg
[6]; [12]
  Activity: ++ (50~21% = ++)
  T/C: 22.4%
[6]; [13]
  Activity: +++ (20~0% = +++)
  T/C: 9.6%
[6]; 12.5 mg/kg/day ip D1~5, BDF1 mice
  T/C: 3.3%
[6]; [14]
  Activity: Toxic
  T/C: 0.3%
  died/used: 6/6
[6]; ip, 5 successive days
  antitumor effect compared with CCNU: more effective than CCNU
[7]; one-month administration, qd, day 1-30, male Wister rat, glucose oxidase method
  blood sugar level: neither elevation nor depression tendencies
[7]; rat, in vivo
  diabetogenic activity: free from diabetogenic
[2]; 10 mg/kg ip single
  Death rate (death/used): 0/10
[2]; 10 mg/kg ip single, day 3
  Average count of WBC: 74.0±4.6 x 10^2 WBC/mm^3
[2]; 10 mg/kg ip single, day 8
  Average count of WBC: 105.6±4.5 x 10^2 WBC/mm^3
[2]; 10 mg/kg ip single, day 15
  Average count of WBC: 131.8±5.4 x 10^2 WBC/mm^3
[2]; 20 mg/kg ip single
  Death rate (death/used): 2/10
[2]; 20 mg/kg ip single, day 3
  Average count of WBC: 46.3±9.5 x 10^2 WBC/mm^3
[2]; 20 mg/kg ip single, day 8
  Average count of WBC: 101.0±16.5 x 10^2 WBC/mm^3
[2]; 20 mg/kg ip single, day 15
  Average count of WBC: 129.4±20.1 x 10^2 WBC/mm^3
[2]; 40 mg/kg ip single
  Death rate (death/used): 10/10
[2]; 40 mg/kg ip single, day 3
  Average count of WBC: 30.8±2.8 x 10^2 WBC/mm^3
[2]; 60 mg/kg ip single
  Death rate (death/used): 10/10
[2]; 60 mg/kg ip single, day 3
  Average count of WBC: 35.4±2.9 x 10^2 WBC/mm^3
[2]; 80 mg/kg ip single
  Death rate (death/used): 10/10
[2]; 80 mg/kg ip single, day 3
  Average count of WBC: 32.0±3.8 x 10^2 WBC/mm^3
[2]; LD10 doses
  incidence of leukopenia: comparatively mild with rapid return to pretreatment levels
[2]; mouse, in vivo
  bone marrow toxicity: improved bone marrow toxicity
  bone marrow toxicity compared with CCNU: less toxic
  bone marrow toxicity compared with GCNU: equivalent values as GCNU
Leukemia L-1210; 1.0 mg/kg/day ip D1~5
  ILS: 48%
  Survivors (60 days survivors/total): 0/6
Leukemia L-1210; 2.0 mg/kg/day ip D1~5
  ILS: > 249%
  Survivors (60 days survivors/total): 1/6
Leukemia L-1210; 2.0 mg/kg/day po D1~5
  ILS: > 143%
  Survivors (60 days survivors/total): 1/6
Leukemia L-1210; 3.2 mg/kg/day ip D1~5
  ILS: 394%
  Survivors (60 days survivors/total): 3 out of 6
Leukemia L-1210; [15]
  ILS: > 394%
  Survivors (60 days survivors/total): 3/6
Leukemia L-1210; 3.2 mg/kg/day po D1~5
  ILS: > 141%
  Survivors (60 days survivors/total): 1/6
Leukemia L-1210; 4.0 mg/kg/day ip D1~5
  ILS: > 349%
  Survivors (60 days survivors/total): 2/6
Leukemia L-1210; 6.3 mg/kg ip D1 only
  ILS: 128%
  Survivors (60 days survivors/total): 0/6
Leukemia L-1210; 6.3 mg/kg/day ip D1~5
  ILS: > 198%
  Survivors (60 days survivors/total): 1/6
Leukemia L-1210; 6.3 mg/kg/day po D1~5
  ILS: 343% and > 343%
  Survivors (60 days survivors/total): 2 out of 6 and 2/6
Leukemia L-1210; 8.0 mg/kg ip D1 only
  ILS: > 432%
  Survivors (60 days survivors/total): 3/6
Leukemia L-1210; 10.0 mg/kg ip D1 only
  ILS: > 717%
  Survivors (60 days survivors/total): 6/6
Leukemia L-1210; 10.0 mg/kg/day ip D1~5
  ILS: > 190%
  Survivors (60 days survivors/total): 1/6
Leukemia L-1210; 12.5 mg/kg/day ip D1~5
  ILS: > 160%
  Survivors (60 days survivors/total): 1/6
Leukemia L-1210; 12.5 mg/kg/day po D1~5
  ILS: 211%
  Survivors (60 days survivors/total): 0/6
Leukemia L-1210; 20.0 mg/kg ip D1 only
  ILS: > 717%
  Survivors (60 days survivors/total): 6/6
Leukemia L-1210; 20.0 mg/kg/day ip D1~5
  ILS: 58%
  Survivors (60 days survivors/total): 0/6
Leukemia L-1210; 25.0 mg/kg ip D1 only
  ILS: > 539%
  Survivors (60 days survivors/total): > 4/6
Leukemia L-1210; ip
  single dose compared with five dose schedule: might be more effective than a five dose schedule
Leukemia L-1210; mouse, in vivo
  activity against L-1210 compared with CCNU and GCNU: more active against L-1210
Leukemia L-1210; single 10-20 mg/kg ip
  ILS: 717%
  animals survived: all 6 animals survived
[8]; [16]
  Activity: - (100~71% = -)
  T/C: 86.1%
[8]; [17]
  Activity: + (70~51% = +)
  T/C: 55.2%
[8]; [18]
  T/C: 44.3%
[8]; [19]
  Activity: ++ (50~21% = ++)
  T/C: 29.2%
[8]; [20]
  Activity: Toxic
  died/used: 6/6
[8]; ip, 5 successive days
  antitumor effect compared with CCNU: more effective than CCNU
[9]; [16]
  Activity: +++ (10~0% 10~0% = +++)
  T/C: 0%
[9]; [21]
  accumulation of ascites tumor cells: no accumulation of ascites tumor cells was observable
[9]; [18]
  T/C: 0%
bacteria
  antibacterial activity: without any antibacterial activities; also recorded: free from diabetogenic and antibacterial activities
[10]; [16]
  Activity: +++ (10~0% 10~0% = +++)
  T/C: 0%
[10]; [21]
  accumulation of ascites tumor cells: no accumulation of ascites tumor cells was observable
[10]; [18]
  T/C: 0%

## O=NN(CCCl)C(=O)N[C@H]1C(O)O[C@H](CO)[C@@H](O)[C@@H]1O (stereo partly drawn) [2-[3-(2-chloroethyl)-3-nitrosoureido]-2-deoxy-D-glucopyranose]
[1]
  bone marrow toxicity: low bone marrow toxicity
[11]
  water solubility: water-soluble
tumor
  antitumor activity: improved antitumor activity
[3]; test animals
  diabetogenic activity: diabetogenic

## CN(N=O)C(=O)N[C@H]1C(O)O[C@H](CO)[C@@H](O)[C@@H]1O (stereo partly drawn) [streptozotocin, N-carbamyl-N'-methyl-N'-nitroso-2-amino-2-deoxy-D-glucopyranose]
tumor
  antitumor activity: exhibits an antitumor activity
[3]; in vivo
  diabetogenic activity: diabetogenic
